Measurements reported in ChEMBL document CHEMBL4000244, “Probing A-form DNA: A fluorescent aminosugar probe and dual recognition by anthraquinone-neomycin conjugates” (Bioorg Med Chem, 2017).

Tests used:
[1] = Binding affinity to 5'-GGGCCCGG-3' DNA hairpin assessed as change in fluorescence intensity at 1 uM after 45 mins by fluorescence quenching analysis relative to control
[2] = Binding affinity to 5'-GGGGCGGG-3' DNA hairpin assessed as change in fluorescence intensity at 1 uM after 45 mins by fluorescence quenching analysis relative to control
[3] = Binding affinity to 5'-CGGGGCGG-3' DNA hairpin assessed as change in fluorescence intensity at 1 uM after 45 mins by fluorescence quenching analysis relative to control
[4] = Binding affinity to 5'-GCGGCCGC-3' DNA hairpin assessed as change in fluorescence intensity at 1 uM after 45 mins by fluorescence quenching analysis relative to control
[5] = Binding affinity to 5'-GCCGCGGC-3' DNA hairpin assessed as change in fluorescence intensity at 1 uM after 45 mins by fluorescence quenching analysis relative to control
[6] = Binding affinity to 5'-CCGCCCGG-3' DNA hairpin assessed as change in fluorescence intensity at 1 uM after 45 mins by fluorescence quenching analysis relative to control

Activity [1]: 25.4%
Activity [2]: 43.6%
Activity [3]: 45.5%
Activity [4]: 54.5%
Activity [5]: 56.3%
Activity [6]: 56.8%
SMILES: NCC1O[C@H](O[C@H]2[C@@H](O)[C@H](O[C@@H]3[C@@H](O)[C@H](N)C[C@H](N)[C@H]3O[C@H]3O[C@H](CN)[C@@H](O)[C@H](O)[C@H]3N)O[C@@H]2CSCCNC(=O)CCSCC(=O)Nc2ccc(-c3c4ccc(=O)cc-4oc4cc(O)ccc34)c(C(=O)O)c2)[C@H](N)[C@@H](O)[C@@H]1O (stereo partly specified)
